Activity calls are given as the source filed them. The rule behind the calls is not given here.
Assays:
[1] = biological target: T1, Nucleoside diphosphate phosphatase ENTPD5 (Homo sapiens) (UniProt O75356); assay: Inhibition of human recombinant ENTPD5 expressed in insect cells assessed as reduction in UDP hydrolysis at 1 uM incubated for 1 hr in presence of UMP, GTP and ATP by Escherichia coli UMP kinase pyrH catalyzed UMP phosphorylation coupled luciferase assay
T1 sequence (whole entry): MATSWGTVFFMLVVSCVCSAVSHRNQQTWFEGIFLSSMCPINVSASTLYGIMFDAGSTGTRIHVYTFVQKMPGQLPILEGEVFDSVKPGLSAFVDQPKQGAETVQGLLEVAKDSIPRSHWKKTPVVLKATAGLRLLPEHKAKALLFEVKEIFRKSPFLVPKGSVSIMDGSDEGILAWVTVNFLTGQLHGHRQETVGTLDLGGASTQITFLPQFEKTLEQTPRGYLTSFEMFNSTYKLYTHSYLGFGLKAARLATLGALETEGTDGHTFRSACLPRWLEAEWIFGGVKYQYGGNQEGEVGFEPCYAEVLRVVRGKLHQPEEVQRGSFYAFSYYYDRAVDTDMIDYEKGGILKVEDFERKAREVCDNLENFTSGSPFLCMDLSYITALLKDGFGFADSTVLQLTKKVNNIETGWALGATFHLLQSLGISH

[2] = biological target: T1, Nucleoside diphosphate phosphatase ENTPD5 (Homo sapiens); assay: Inhibition of human recombinant ENTPD5 expressed in insect cells assessed as reduction in UDP hydrolysis up to 10 uM incubated for 1 hr in presence of UMP, GTP and ATP by Escherichia coli UMP kinase pyrH catalyzed UMP phosphorylation coupled luciferase assay
[3] = biological target: T2, Uridylate kinase (Escherichia coli (strain K12)) (UniProt P0A7E9); assay: Inhibition of recombinant Escherichia coli UMP kinase pyrH catalyzed UMP phosphorylation in presence of GTP and ATP incubated for 1 hr by luminescence based assay
T2 sequence (whole entry): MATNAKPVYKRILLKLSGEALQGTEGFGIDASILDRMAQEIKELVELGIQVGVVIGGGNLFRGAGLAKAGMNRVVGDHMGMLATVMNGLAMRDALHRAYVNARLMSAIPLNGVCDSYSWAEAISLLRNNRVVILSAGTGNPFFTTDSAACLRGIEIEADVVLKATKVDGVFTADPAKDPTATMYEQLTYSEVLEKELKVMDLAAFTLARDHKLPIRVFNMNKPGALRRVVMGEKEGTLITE

[4] = biological target: T1, Nucleoside diphosphate phosphatase ENTPD5 (Homo sapiens); assay: Inhibition of human recombinant ENTPD5 expressed in insect cells assessed as reduction in reduction in UDP hydrolysis by measuring inorganic phosphate release incubated for 1 hr by malachite green based assay

Row | SMILES | inhibition [1] | inhibition [2] | inhibition [3] | inhibition [4]
1 | O=C1C=Cc2ccccc2/C1=C/NNC(=O)C(O)(c1ccccc1)c1ccccc1 | Active | Dose-dependent effect | inactive | Active
2 | CC(C)(C)c1cc(CN(CCO)CCO)cc(C(C)(C)C)c1O | Active | Dose-dependent effect | inactive | Active
3 | Cc1ccc(/C=C/C(=O)Nc2nc3ccc(Cl)cc3s2)o1 | Active | Dose-dependent effect | inactive | Active
4 | O=C1NC(=S)N(c2ccc(Cl)cc2)C(=O)/C1=C/c1ccc(I)o1 | Active | Dose-dependent effect | inactive | Active
5 | Nc1nc(SCc2nnc(Nc3ccccc3)s2)nc2sc3c(c12)CCC3 | Active | Dose-dependent effect | inactive | Active
6 | O=C1OC(c2ccccc2)OC(=O)C1=Cc1ccc(-c2cccc(Br)c2)o1 (stereo unspecified) | Active | Dose-dependent effect | inactive | Active
7 | COc1ccc(/C=C2\SC(=S)N(CCCC(=O)NNC(=O)c3ccccc3O)C2=O)cc1 | Active | Dose-dependent effect | inactive | Active
8 | CC(C)(C)C(=O)Nc1ccc(C(=O)Nc2ccc(-c3nc4ncccc4o3)cc2)cc1 | Active | Dose-dependent effect | inactive | Active
9 | Cc1ccc(N2C(=O)/C(=C/c3cc(Br)cc(I)c3O)C(=O)NC2=S)cc1C | Active | Dose-dependent effect | inactive | Active
10 | O=[N+]([O-])c1ccc(NCc2ccco2)c2nonc12 | Active | Dose-dependent effect | inactive | Active
11 | O=C1NC(=S)N(c2ccc(Cl)cc2)C(=O)/C1=C\c1ccc(-c2ccccc2C(=O)O)o1 | Active | Dose-dependent effect | inactive | Active
12 | COc1cccc(/C=c2/sc3n(c2=O)C(c2cccs2)C2=C(N=3)c3ccccc3CC2)c1O (stereo unspecified) | Active | Dose-dependent effect | inactive | Active
13 | COc1ccc(-n2cccc2/C=C2\C(=O)NC(=S)N(c3ccc(Br)cc3)C2=O)cc1 | Active | Dose-dependent effect | inactive | Active
14 | O=C1NC(=O)N(c2ccc(Br)cc2)C(=O)/C1=C/c1c[nH]c2ccccc12 | Active | Dose-dependent effect | inactive | Active
15 | CC1=C(C(=O)OC(C)C)C(c2cn(-c3ccccc3)nc2-c2ccc(Cl)cc2)C(C(=O)OC(C)C)=C(C)N1 | Active | Dose-dependent effect | inactive | Active
16 | O=C(C(c1ccccc1)c1ccccc1)N(CCc1csc2nc(-c3ccc4ccccc4c3)cn12)Cc1ccco1 | Active | Dose-dependent effect | inactive | Active
17 | O=C1/C(=C/c2cc([N+](=O)[O-])cc(Br)c2O)SC(=S)N1c1ccc([N+](=O)[O-])cc1 | Active | Dose-dependent effect | inactive | Active
18 | O=C1NC(=O)C(=Cc2cn(-c3ccccc3)nc2-c2ccc(F)cc2)C(=O)N1 | Active | Dose-dependent effect | inactive | Active
19 | COc1cccc(OCCn2cc(/C=C3/C(=N)N4N=C(C(C)C)SC4=NC3=O)c3ccccc32)c1 | Active | Dose-dependent effect | inactive | Active
20 | N#Cc1ccccc1COc1ccc(/C=C2/SC(=S)NC2=O)cc1Br | Active | Dose-dependent effect | inactive | Active

Row | SMILES | inhibition [1] | inhibition [2] | inhibition [3] | inhibition [4]
21 | O=C1C=C/C(=C\NNc2nc(-c3ccccc3)c(CC(=O)O)s2)C(O)=C1 | Active | Dose-dependent effect | inactive | Active
22 | N=C1NC(=O)/C(=C/C=C/c2ccc([N+](=O)[O-])o2)S1 | Active | Dose-dependent effect | inactive | Active
23 | O=C1/C(=C/c2ccc(-c3ccc(Cl)cc3)o2)SC(=S)N1Cc1ccco1 | Active | Dose-dependent effect | inactive | Active
24 | CC(=O)c1ccc(-c2ccc(C=C3C(=O)N(C)C(=S)N(C)C3=O)o2)cc1 | Active | Dose-dependent effect | inactive | Active
25 | COc1ccc(N2C(=O)/C(=C/c3cccn3-c3ccc(Br)cc3)C(=O)NC2=S)cc1 | Active | Dose-dependent effect | inactive | Active
26 | CCN1C(=O)c2ccc(-c3ccc(C=C4C(=O)NC(=S)NC4=O)o3)cc2C1=O | Active | Dose-dependent effect | inactive | Active
27 | Cc1ccc(C2=C/C(=C/c3ccc(C)c([N+](=O)[O-])c3)C(=O)O2)c(C)c1 | Active | Dose-dependent effect | inactive | Active
28 | N#CC1=C(N)NC(SCC(=O)c2cc3ccccc3oc2=O)=C(C#N)C1=C1C=CC(=O)C=C1 | Active | Dose-dependent effect | inactive | Active
29 | O=S(=O)(c1cccc2cccnc12)N(CCc1csc2nc(-c3ccc4ccccc4c3)cn12)Cc1ccco1 | Active | Dose-dependent effect | inactive | Active
30 | O=C1C=CC(Br)=C/C1=C/NNC(=O)c1cc2ccccc2cc1O | Active | Dose-dependent effect | inactive | Active
31 | O=C1c2c(O)cccc2Cc2cccc(O)c21 | Active | Dose-dependent effect | inactive | Active
32 | Cc1ccc(NC2=NC(=O)/C(=C/c3ccc(-c4ccc(C(=O)O)cc4)o3)S2)cc1Cl | Active | Dose-dependent effect | inactive | Active
33 | O=C1C=CC(=O)c2c1ccc1c2ccc2ccccc21 | Active | Dose-dependent effect | inactive | Active
34 | O=[N+]([O-])c1cccc(C2C3CC=CC3c3cc([N+](=O)[O-])cc4c3N2CC2CC=CC42)c1 (stereo unspecified) | Active | Dose-dependent effect | inactive | Active
35 | O=C1NC(=O)N(c2ccc(Cl)cc2)C(=O)/C1=C/c1cnn(-c2ccccc2)c1 | Active | Dose-dependent effect | inactive | Active
36 | O=C(O)C1=CC(C(c2ccc(O)c(C(=O)O)c2)c2ccc(O)c(C(=O)O)c2)C=CC1=O (stereo unspecified) | Active | Dose-dependent effect | inactive | Active
37 | O=C(c1ccc(C(F)(F)F)cc1)N(CCc1csc2nc(-c3ccc4ccccc4c3)cn12)Cc1ccco1 | Active | Dose-dependent effect | inactive | Active
38 | O=C(Nc1c[nH]c(=O)[nH]c1=O)c1cccc(N2C(=O)c3ccc([N+](=O)[O-])cc3C2=O)c1 | Active | Dose-dependent effect | inactive | Active
39 | O=C(NC12CC3CC(CC(C3)C1)C2)N1CCN(C(=O)c2ccco2)CC1 | Active | Dose-dependent effect | inactive | Active

Reference: ChEMBL document CHEMBL4418495, “Entpd5 inhibitors” (2012)
